According to ChEMBL document CHEMBL1128198, “New drug developments for opportunistic infections in immunosuppressed patients: Pneumocystis carinii” (J Med Chem, 1995):
Values belong to the molecule of their own block, whether it stands above or below them.

Legend:
Pneumocystis carinii [1] = test: Minimal effective concentration inhibiting growth of Pneumocystis carinii was reported.; format: functional; settings: read-out: MEC
Rattus norvegicus [2] = species on record: Rattus norvegicus; test: Toxicity was reported in rat.; format: organism-based; settings: in vivo
Rattus norvegicus [3] = test: Evaluated for effectiveness at 10 mg/kg reported as relative to pentamidine in rat; format: functional
Dihydrofolate reductase [4] = target: T1, Dihydrofolate reductase (Pneumocystis carinii, UniProt P16184)
T1 sequence (P16184 whole entry): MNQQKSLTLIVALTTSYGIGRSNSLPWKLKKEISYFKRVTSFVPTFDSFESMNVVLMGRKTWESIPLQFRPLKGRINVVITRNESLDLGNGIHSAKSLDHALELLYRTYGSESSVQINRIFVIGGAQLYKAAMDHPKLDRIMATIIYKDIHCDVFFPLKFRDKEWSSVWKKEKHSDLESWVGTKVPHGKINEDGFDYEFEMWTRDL
Description: Inhibitory activity was determined against dihydrofolate reductase in Pneumocystis carinii.

Rattus norvegicus [5] = species on record: Rattus norvegicus; test: Toxicity was reported in rat; Toxic; format: organism-based; settings: in vivo
[6] = Ratio for IC50 of mammalian DHFR to IC50 of Pneumocystis carinii DHFR
Dihydrofolate reductase [7] = target: T1, Dihydrofolate reductase; remark: listed apart in the source
Description: Inhibitory activity against dihydrofolate reductase in Pneumocystis carinii at 37 centigrade.

Dihydrofolate reductase [8] = target: T1, Dihydrofolate reductase; remark: listed apart in the source
Description: Binding affinity was reported with purified recombinant Pneumocystis carinii Dihydrofolate reductase

Pneumocystis carinii [9] = test: Pneumocystis carinii cysts per gram of lung tissue was determined in Pneumocystis carinii expressed as perscent of saline treated- control; format: functional; set-up: concentration or dose not given beside the values
Rattus norvegicus [10] = species on record: Rattus norvegicus; test: toxicity was reported in rat.; format: organism-based; settings: in vivo
Pneumocystis carinii [11] = test: Toxicity in Pneumocystis carinii Strong activity; format: organism-based; settings: in vivo
Rattus norvegicus [12] = species on record: Rattus norvegicus; test: Toxicity was reported in rat; Toxic,; format: organism-based; settings: in vivo
Dihydrofolate reductase [13] = target: T1, Dihydrofolate reductase; remark: listed apart in the source
Dihydrofolate reductase [14] = target: T2, Dihydrofolate reductase (Rattus norvegicus, UniProt Q920D2); test: Inhibitory activity against dihydrofolate reductase in rat.
T2 sequence (Q920D2 whole entry): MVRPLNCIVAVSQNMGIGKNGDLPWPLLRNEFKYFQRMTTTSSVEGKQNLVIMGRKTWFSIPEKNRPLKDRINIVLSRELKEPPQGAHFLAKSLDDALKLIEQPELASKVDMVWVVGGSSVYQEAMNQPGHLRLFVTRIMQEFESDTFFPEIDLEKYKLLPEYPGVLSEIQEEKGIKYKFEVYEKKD

[15] = Inhibitory activity of Pneumocystis carinii growth culture.
Dihydrofolate reductase [16] = target: T2, Dihydrofolate reductase; test: Inhibitory activity against dihydrofolate reductase in rat liver.

SMILES: COc1cc(NCCCCC(C)N)c2nccc(C)c2c1 (stereo not drawn)
minimal effective concentration (Pneumocystis carinii [1]): 0.2 µM

SMILES: COc1cc(C(=N)N)ccc1OCOc1ccc(C(=N)N)cc1OC
Toxicity (Rattus norvegicus [2]): 0
Effectiveness (Rattus norvegicus [3]): 1.8

IC50 (Dihydrofolate reductase [4]): 120000 nM
SMILES: Nc1nc(N)c2cc(Sc3cccc(C(F)(F)F)c3)sc2n1

SMILES: N=C(N)c1ccc(OCCCOc2ccc(C(=N)N)cc2)cc1 [PROPAMIDINE]
Toxicity (Rattus norvegicus [5]): Toxic
Effectiveness (Rattus norvegicus [3]): 1.2

Selectivity [6]: 44
IC50 (Dihydrofolate reductase [7]): 3000 nM
Ki (Dihydrofolate reductase [8]): 3.4 nM
SMILES: CCOc1cc(Cc2cnc(N)nc2N)cc(OCC)c1-n1cccc1 [EPIROPRIM]

SMILES: c1cc2[nH]c(CCCc3nc4cc(C5=NCCN5)ccc4[nH]3)nc2cc1C1=NCCN1
Lung cyst count, % of saline control (Pneumocystis carinii [9]): 4%

SMILES: COc1cc(NC(C)CCCN)c2nccc(C)c2c1Oc1cccc(C(F)(F)F)c1 (stereo not drawn)
minimal effective concentration (Pneumocystis carinii [1]): 0.2 µM

SMILES: N=C(N)c1cc(N)cc(OCCCCOc2cc(C(=N)N)ccc2N)c1
Toxicity (Rattus norvegicus [2]): 0
Effectiveness (Rattus norvegicus [3]): 1.1

SMILES: CCCCCCOc1c(OC)cc(NC(C)CCCN)c2nccc(C)c12 (stereo not drawn) [WR-242511]
minimal effective concentration (Pneumocystis carinii [1]): 0.2 µM

SMILES: N=C(N)c1ccc(OCCCCOc2ccc(C(=N)N)cc2)cc1
Toxicity (Rattus norvegicus [10]): 0
Effectiveness (Rattus norvegicus [3]): 2.2

SMILES: c1cc(OCCOc2cccc(C3=NCCN3)c2)cc(C2=NCCN2)c1
Toxicity (Rattus norvegicus [2]): Toxic
Effectiveness (Rattus norvegicus [3]): 0.6

SMILES: N=C(N)c1ccc2[nH]c(CCCCc3nc4cc(C(=N)N)ccc4[nH]3)nc2c1
Toxicity (Pneumocystis carinii [11]): Strong activity
Lung cyst count, % of saline control (Pneumocystis carinii [9]): 0.3%

SMILES: CCN(CC)CCCCCCNc1cc(OC)cc2c(C)ccnc12 [SITAMAQUINE]
minimal effective concentration (Pneumocystis carinii [1]): 2.3 µM

SMILES: N=C(N)c1ccc(OCCCCCOc2ccc(C(=N)N)cc2)cc1 [PENTAMIDINE]
Toxicity (Rattus norvegicus [12]): Toxic
Effectiveness (Rattus norvegicus [3]): 1

SMILES: COc1cc(NC(C)CCCN)c2nc(C)ccc2c1 (stereo not drawn)
minimal effective concentration (Pneumocystis carinii [1]): 0.03 µM

SMILES: N=C(N)c1ccc(OCOc2ccc(C(=N)N)cc2N)c(N)c1
Toxicity (Rattus norvegicus [2]): 0
Effectiveness (Rattus norvegicus [3]): 1.1

IC50 (Dihydrofolate reductase [4]): 1200 nM
SMILES: COc1ccc(OC)c(CCc2sc3nc(N)nc(N)c3c2C)c1

SMILES: COc1cc(C)c2c(Oc3cccc(C(F)(F)F)c3)c(OC)cc(NC(C)CCCN)c2n1 (stereo not drawn) [TAFENOQUINE]
minimal effective concentration (Pneumocystis carinii [1]): 0.2 µM

IC50 (Dihydrofolate reductase [4]): 35 nM
SMILES: CN(Cc1cnc2nc(N)nc(N)c2n1)c1ccc(C(=O)NC(CCC(=O)NC(CCC(=O)NC(CCC(=O)NC(CCC(=O)O)C(=O)O)C(=O)O)C(=O)O)C(=O)O)cc1 (stereo not drawn)

SMILES: c1cc2[nH]c(CCCCc3nc4cc(C5=NCCN5)ccc4[nH]3)nc2cc1C1=NCCN1
Toxicity (Pneumocystis carinii [11]): Strong activity
Lung cyst count, % of saline control (Pneumocystis carinii [9]): 0.1%

IC50 (Dihydrofolate reductase [4]): 6 nM
SMILES: Nc1nc(N)c2c(ncc3c2ccn3Cc2ccc(Cl)cc2Cl)n1

SMILES: COc1cc(NC(C)CCCN)c2ncccc2c1 (stereo not drawn) [PRIMAQUINE]
minimal effective concentration (Pneumocystis carinii [1]): 0.02 µM

SMILES: N=C(N)c1ccc2[nH]c(CCCc3nc4cc(C(=N)N)ccc4[nH]3)nc2c1
Lung cyst count, % of saline control (Pneumocystis carinii [9]): 32%

SMILES: CCc1nc(N)nc(N)c1-c1ccc(Cl)c([N+]#N)c1
IC50 (Dihydrofolate reductase [4]): 190 nM

SMILES: Cc1cc(NS(=O)(=O)c2ccc(N)cc2)no1 [SULFAMETHOXAZOLE]
IC50 (Dihydrofolate reductase [13]): 100 nM

IC50 (Dihydrofolate reductase [14]): 18900 nM
IC50 (Dihydrofolate reductase [4]): 2800 nM
IC50 [15]: 5500 nM
SMILES: CCN=NNc1cc(-c2c(N)nc(N)nc2CC)ccc1Cl

IC50 (Dihydrofolate reductase [16]): 110 nM
IC50 (Dihydrofolate reductase [7]): 450 nM
Ki (Dihydrofolate reductase [8]): 23.3 nM
SMILES: CC1(C)N=C(N)N=C(N)N1c1ccc(Cl)cc1 [CYCLOGUANIL]

SMILES: c1cc(C2=NCCN2)ccc1OCOc1ccc(C2=NCCN2)cc1
Toxicity (Rattus norvegicus [2]): 0
Effectiveness (Rattus norvegicus [3]): 2.4

SMILES: N=C(N)c1cccc(OCCCCOc2cccc(C(=N)N)c2)c1
Toxicity (Rattus norvegicus [2]): 0
Effectiveness (Rattus norvegicus [3]): 0.6

IC50 (Dihydrofolate reductase [4]): 3100 nM
SMILES: COc1cc(Cn2ccc3c4c(N)nc(N)nc4nc(O)c32)cc(OC)c1OC

IC50 (Dihydrofolate reductase [4]): 1500 nM
SMILES: Nc1ccc(S(=O)(=O)c2ccc(N)cc2)cc1 [DAPSONE]

IC50 (Dihydrofolate reductase [7]): > 63000 nM
SMILES: COCCOc1c(OC)cc(Cc2cnc(N)nc2N)cc1OC [TETROXOPRIM]

SMILES: COc1cc(C2=NCCN2)ccc1OCCCOc1ccc(C2=NCCN2)cc1
Toxicity (Rattus norvegicus [2]): 0
Effectiveness (Rattus norvegicus [3]): 1.3

IC50 (Dihydrofolate reductase [4]): 9500 nM
SMILES: Nc1cc(N)c2nc(CSc3ccccc3)cnc2c1

SMILES: N=C(N)c1ccc2[nH]c(CCc3nc4cc(C(=N)N)ccc4[nH]3)nc2c1
Lung cyst count, % of saline control (Pneumocystis carinii [9]): 1%

SMILES: COc1cc(OCCCCOc2cc(C(=N)N)ccc2OC)cc(C(=N)N)c1
Toxicity (Rattus norvegicus [2]): 0
Effectiveness (Rattus norvegicus [3]): 1.2

IC50 (Dihydrofolate reductase [4]): 190 nM
SMILES: CN(Cc1cnc2cc(N)cc(N)c2n1)c1ccc(C(=O)NC(CCC(=O)O)C(=O)O)c2ccccc12 (stereo not drawn)

SMILES: COc1cc(NC(C)CCCN)c2nccc(C)c2c1 (stereo not drawn)
minimal effective concentration (Pneumocystis carinii [1]): 0.02 µM

IC50 (Dihydrofolate reductase [4]): 10600 nM
SMILES: CCc1nc(N)nc(N)c1-c1ccc(Cl)c(NCN(C)C)c1

SMILES: N=C(N)c1cccc(OCOc2cccc(C(=N)N)c2)c1
Toxicity (Rattus norvegicus [2]): 0
Effectiveness (Rattus norvegicus [3]): 0.7

SMILES: COc1ccc(C2=NCCN2)cc1OCCCCOc1cccc(C2=NCCN2)c1
Toxicity (Rattus norvegicus [12]): Toxic
Effectiveness (Rattus norvegicus [3]): 1.7

SMILES: N=C(N)c1ccc2[nH]c(/C=C/c3nc4cc(C(=N)N)ccc4[nH]3)nc2c1
Lung cyst count, % of saline control (Pneumocystis carinii [9]): 3%
